# Data as given in patent US7083799B1, “No-synthase inhibitors” (L'Oreal, priority 1995, dated 2006).
# Experiments:
# mouse ear = details: in vivo
# Procedure: Next, there is topically applied to the ear of these 5 mice previously treated with N^G,N^G-dimethylarginine (group A) and to the ear of 5 untreated mice (group B), at time t=0, 20 μl of an acetone solution comprising 0.01% by weight of 2-(5,6,7,8-tetrahydro-5,5,8,8-tetramethyl-2-naphthyl)-6-benzo[b]thiophenecarboxylic acid. The oedematous response is quantified by measurement of the thickness of the ear.
# [1] = tested on: mouse ear oedema induced by 0.01% 2-(5,6,7,8-tetrahydro-5,5,8,8-tetramethyl-2-naphthyl)-6-benzo[b]thiophenecarboxylic acid; assay: mouse ear oedema test (ear thickness) induced by topical application of an irritant retinoid; type: in vivo, mouse (Balb/C)
# [2] = tested on: mouse ear oedema induced by 0.01% 2-(5,6,7,8-tetrahydro-5,5,8,8-tetramethyl-2-naphthyl)-6-benzo[b]thiophenecarboxylic acid; assay: as above; type: in vivo, mouse (Balb/C); details: curative
# Procedure: This increase in the thickness of the mouse ear appears to be due to an increase in the thickness of the epidermis and to the appearance of a dermal oedema. This response can therefore be easily measured with the aid of an apparatus, such as the oditest.
# (§1) 5 (=group 2) of the 10 mice thus treated are made to ingest orally N^G-nitro-L-arginine methyl ester in drinking water from t=0 and once per day for 11 days (N^G-nitro-L-arginine methyl ester concentration of 1 mg/ml, that is to say 170±40 mg/kg per day).
# […] The 5 mice which were not treated with […] constitute group 1.
# [3] = observation of toxicity and weight change in mice given the inhibitor orally; type: in vivo, mouse (Balb/C); details: oral in drinking water 1 mg/ml (170±40 mg/kg per day), once per day for 11 days
# Procedure: as §1
# [4] = gel 1% by weight, topical once per day for 4 days before the irritant, preventive, group A vs group B
# [5] = 1% by weight, topical from 6 hours after the irritant, once per day for 5 days
# [6] = 5%, topical from 6 hours after the irritant, once per day for 5 days, curative
compound,measurement,setting,value
"CN(C)C(N)=NCCC[C@H](N)C(=O)O [N^G,N^G-dimethylarginine]",increase in the thickness of the ear by the inhibitor gel alone,mouse ear,No increase
same,reduction of the amplitude of the response induced by the irritant product,[1]; [4],24%
same,reduction of the area under the curve of the response induced by the irritant product (ear thickness vs days),[1]; [4],50%
"CN=C(NC)NCCC[C@H](N)C(=O)O [SDMA, N^G,N^G-dimethyl-L-arginine, reference compound]",inhibition of the ear oedema,[2]; [5],7%
same,reduction of the area under the curve of the response induced by the irritant product (ear thickness vs days),[2]; [5],27%
"COC(=O)[C@@H](N)CCCNC(=N)N[N+](=O)[O-] [N^G-nitro-L-arginine methyl ester, methyl ester of N^G-nitro-L-arginine]",increase in the thickness of the mouse ear (maximum of group 1 without inhibitor = 100%),"[2]; oral in drinking water 1 mg/ml (170±40 mg/kg per day) from t=0, once per day, after 5 days of treatment",70%
same,inhibition of the ear oedema,"[2]; oral in drinking water 1 mg/ml (170±40 mg/kg per day) from t=0, after 5 days",30%
same,change in weight,[3],not modified
same,sign of toxicity,[3],no sign of toxicity
"C[N+](C)(C)CC(=O)O [betaine, reference compound]",inhibition of the ear oedema,[2]; [5],9%
same,reduction of the area under the curve of the response induced by the irritant product (ear thickness vs days),[2]; [5],24%
same,inhibition of the ear oedema,[1]; [6],16%
same,reduction of the area under the curve of the response induced by the irritant product (ear thickness vs days),[1]; [6],13%
"CNC(=N)NCCC[C@H](N)C(=O)O [L-NMMA, N^G-monomethyl-L-arginine]",inhibition of the ear oedema,[2]; [5],28%
same,reduction of the area under the curve of the response induced by the irritant product (ear thickness vs days),[2]; [5],51%
same,increase in the thickness of the mouse ear (maximum of group 1 without inhibitor = 100%),"[2]; gel 1% by weight, topical from 6 hours after the irritant, once per day for 5 days, after 5 days",72%
